Assay results from US9145351B2, “Azole derivatives, methods for producing the same, intermediate thereof, agro-horticultural agents” (KUREHA CORPORATION, priority 2009, dated 2015).

Experiments:
Puccinia recondita = assay: Efficacy test against wheat brown rust, 100 mg/L and 10 mg/L (Experimental Example 2); format: in vivo; conditions: nine to 14 days after inoculation; for efficacy compared with compound (1): 10 mg/L sprayed at 1,000 L/ha; for pest or weed control at 100 µg/mL: Puccinia recondita, 336 h, 100 mg/L sprayed at 1,000 L/ha, read-out: Protective value
Protocol: Onto a wheat plant (variety: NORIN No. 61) grown to the two-leaf phase using a square plastic pot (6 cm×6 cm), a wettable formulation such as Formulation Example 1 which was diluted and suspended in water at a certain concentration (100 mg/L and 10 mg/L) was sprayed at a rate of 1,000 L/ha. The sprayed leaves were air-dried, and inoculated with spore suspension of Puccinia recondita (adjusted at 200 spores/vision, […] was added at 60 ppm) by spraying, and kept at 25 degrees C. and a high humidity for 48 hours. Thereafter, the plant was kept in a greenhouse. Nine to 14 days after inoculation, the wheat brown rust lesion degree was investigated, and the protective value was calculated by the following equation. Protective value (%)=(1-lesion degree in sprayed plot/lesion degree in unsprayed plot)×100

Cladosporium sp. = assay: Plate medium assay, industrial material deteriorating microorganism, Cladosporium (Experimental Example 5); format: cell-based; conditions: treatment at 50 mg/l, PDA plate medium, read-out: growth inhibition grade
Protocol: (§1) In this Experimental Example, the fungicidal effects of the inventive compounds on various phytopathogenic fungi for plants and hazardous microorganism for industrial materials were examined by the methods described below. Each inventive compound was dissolved in 2 ml of dimethyl sulfoxide. 0.6 ml of this solution was added to 60 nil of a PDA medium (potato dextrose agar medium) at about 60 degrees C., which was mixed thoroughly in a 100-ml conical flask, and poured into a dish, where it was solidified, thereby obtaining a plate medium containing the inventive compound at 50 mg/L and 5 mg/L. On the other hand, a subject microorganism previously cultured on a plate medium was cut out using a cork borer whose diameter was 4 mm, and inoculated to the test compound-containing plate medium described above. […] The growth degree of the microorganism on the test compound-containing plate medium thus observed was compared with the growth degree of the microorganism in the untreated group, and % mycelial growth inhibition was calculated by the following equation. R=100(dc-dt)/dc wherein R=% mycelial extension inhibition, dc=flora diameter in untreated plate, dt=flora diameter in treated plate. The results obtained as described above were evaluated as one of the 5 grades according to the following criteria.

Aureobasidium sp. = assay: Plate medium assay, industrial material deteriorating microorganism, Aureobasidium (Experimental Example 5); format: cell-based; conditions: treatment at 50 mg/l, PDA plate medium, read-out: growth inhibition grade
Protocol: as §1

Fusarium graminearum = assay: whole plant or invertebrate; format: in vivo; conditions: in Triticum aestivum, 168 h, read-out: Protective value
Aspergillus sp. = assay: Plate medium assay, industrial material deteriorating microorganism, Aspergillus (Experimental Example 5); format: cell-based; conditions: treatment at 50 mg/l, PDA plate medium, read-out: growth inhibition grade
Protocol: as §1

Tyromyces palustris = assay: Plate medium assay, wood denaturing microorganism Oouzuratake (Experimental Example 5); format: cell-based; conditions: treatment at 50 mg/l, PDA plate medium; read-out: growth inhibition grade
Protocol: as §1

Penicillium sp. = assay: Plate medium assay, industrial material deteriorating microorganism, Penicillium (Experimental Example 5); format: cell-based; conditions: treatment at 50 mg/l, PDA plate medium, read-out: growth inhibition grade
Protocol: as §1

Curvularia sp. = assay: Plate medium assay, industrial material deteriorating microorganism, Curvularia (Experimental Example 5); format: cell-based; conditions: treatment at 50 mg/l, PDA plate medium, read-out: growth inhibition grade
Protocol: as §1

Coriolus versicolor = assay: Plate medium assay, wood denaturing microorganism Kawaratake (Experimental Example 5); format: cell-based; conditions: Trametes versicolor; treatment at 50 mg/l, PDA plate medium; read-out: growth inhibition grade
Protocol: as §1

Septoria tritici = assay: Microplate test of biocidal effect on wheat Septoria blotch (Experimental Example 4); format: cell-based; conditions: Zymoseptoria tritici, 240 h; % mycelium growth inhibition, absorbance 550 nm, 20 degrees C. for about 10 days; read-out: activity level (EC80)
Protocol: A spore suspension of wheat Septoria blotch (Septoria tritici) (spore concentration: 1×10^6 cells/ml) was prepared, and subjected to 100-fold dilution with a PD medium. A flat 96-well microplate was provided and 1 microliter of the test compound solution formed by dissolution in dimethyl sulfoxide (DMSO) at a concentration 100 times the test concentration was dispensed to the microplate, and then 100 microliter of the medium containing the spore was added and stirred thoroughly. […] R=100×(dc−dt)/dc: R: % mycelium growth inhibition dc: Absorbance of non-treatment zone dt: Absorbance of treatment zone

Mucor sp. = assay: Plate medium assay, industrial material deteriorating microorganism, Mucor (Experimental Example 5); format: cell-based; conditions: treatment at 50 mg/l, PDA plate medium, read-out: growth inhibition grade
Protocol: as §1

Botrytis cinerea = assay: Efficacy test against cucumber gray mold (Experimental Example 1); format: in vivo; conditions: 96 h, 100 mg/L sprayed at 1,000 L/ha, four days after inoculation, read-out: Protective value
Protocol: Onto a cucumber (variety:SHARP1) plant in its cotyledon phase grown using a square plastic pot (6 cm×6 cm), a wettable formulation such as Formulation Example 1 which was diluted and suspended in water at a certain concentrations (100 mg/L and 50 mg/L) was sprayed at a rate of 1,000 L/ha. The sprayed leaves were air-dried, and loaded with a paper disc (8 mm in diameter) soaked in a spore suspension of Botrytis cinerea, and kept at 20 degrees C. and a high humidity. Four days after inoculation, the cucumber gray mold lesion degree was investigated, and the protective value was calculated by the following equation. Protective value (%)=(1−mean lesion degree in sprayed plot/mean lesion degree in unsprayed plot)×100

SMILES | efficacy compared with compound (1) (Puccinia recondita) | inhibition at 50 µg/mL (Cladosporium sp.) | inhibition at 50 µg/mL (Aureobasidium sp.) | pest or weed control at 100 µg/mL (Fusarium graminearum) | pest or weed control at 500 µg/mL (Fusarium graminearum) | pest or weed control at 100 µg/mL (Puccinia recondita) | inhibition at 50 µg/mL (Aspergillus sp.) | inhibition at 50 µg/mL (Tyromyces palustris) | inhibition at 50 µg/mL (Penicillium sp.) | inhibition at 50 µg/mL (Curvularia sp.) | inhibition at 50 µg/mL (Coriolus versicolor) | EC80 (Septoria tritici) | inhibition at 50 µg/mL (Mucor sp.) | pest or weed control at 100 µg/mL (Botrytis cinerea)
C[C@@]1(CCl)CC[C@@H](Cc2ccc(Cl)cc2)[C@]1(O)Cn1cncn1 (racemic) [Compound I-101] | higher efficacy than that of compound (1) | – | – | – | – | – | – | – | – | – | – | – | – | –
C[C@]1(CBr)CC[C@@H](Cc2ccc(Cl)cc2)[C@]1(O)Cn1cncn1 (racemic) [Compound I-25, (1RS,2SR,5SR)-2-bromomethyl-5-(4-chlorobenzyl)-2-methyl-1-(1H-1,2,4-triazol-1-ylmethyl)cyclopentanol] | higher efficacy than that of compound (1) | 60 to 80% | 60 to 80% | ≥ 80% | ≥ 90% | ≥ 90% | 60 to 80% | 60 to 80% | 60 to 80% | 60 to 80% | 60 to 80% | ≤ 0.2 µg/mL | 60 to 80% | ≥ 80%
CC(Cl)=C[C@]1(C)CC[C@@H](Cc2ccc(Cl)cc2)[C@]1(O)Cn1cncn1 (racemic) [Compound I-115, (1RS,2SR,5SR)-5-(4-chlorobenzyl)-2-(2-chloropropenyl)-2-methyl-1-(1H-1,2,4-triazol-1-ylmethyl)cyclopentanol] | – | 60 to 80% | 60 to 80% | ≥ 80% | ≥ 90% | ≥ 90% | 60 to 80% | 60 to 80% | 60 to 80% | 60 to 80% | 60 to 80% | – | 60 to 80% | –
CC[C@]1(CCl)CC[C@@H](Cc2ccc(Cl)cc2)[C@]1(O)Cn1cncn1 (racemic) [Compound I-36, (1RS,2SR,5SR)-5-(4-chlorobenzyl)-2-chloromethyl-2-ethyl-1-(1H-1,2,4-triazol-1-ylmethyl)cyclopentanol] | higher efficacy than that of compound (1) | 60 to 80% | 60 to 80% | ≥ 80% | ≥ 90% | ≥ 90% | 60 to 80% | 60 to 80% | 60 to 80% | 60 to 80% | 60 to 80% | ≤ 0.2 µg/mL | 60 to 80% | –
C[C@]1(CCl)CC[C@H](Cc2ccc(Cl)cc2)[C@]1(O)Cn1cncn1 (racemic) [Compound I-301, (1RS,2SR,5RS)-5-(4-chlorobenzyl)-2-chloromethyl-2-methyl-1-[1,2,4]triazol-1-ylmethylcyclopentanol] | – | 60 to 80% | 60 to 80% | – | ≥ 90% | ≥ 90% | 60 to 80% | 60 to 80% | 60 to 80% | 60 to 80% | 60 to 80% | ≤ 0.2 µg/mL | 60 to 80% | –
C[C@]1(CCl)CC[C@@H](Cc2ccccc2F)[C@]1(O)Cn1cncn1 (relative stereo) [Compound I-86] | higher efficacy than that of compound (1) | – | – | – | – | – | – | – | – | – | – | – | – | –
O[C@]1(Cn2cncn2)[C@H](Cc2ccc(Cl)cc2)CCC1(CCl)CCl (relative stereo) [Compound I-203, cis-5-(4-chlorobenzyl)-2,2-bis(chloromethyl)-1-(1H-1,2,4-triazol-1-yl)methylcyclopentanol] | higher efficacy than that of compound (1) | – | – | – | – | – | – | – | – | – | – | – | – | –
O[C@]1(Cn2cncn2)[C@H](Cc2ccc(Cl)cc2)CC[C@@H]1C(F)(F)F (racemic) [Compound I-65, (1RS,2SR,5SR)-5-(4-chlorobenzyl)-2-trifluoromethyl-1-(1H-1,2,4-triazol-1-ylmethyl)cyclopentanol] | – | 60 to 80% | 60 to 80% | – | ≥ 90% | ≥ 90% | 60 to 80% | 60 to 80% | 60 to 80% | 60 to 80% | 60 to 80% | – | 60 to 80% | ≥ 80%
O[C@]1(Cn2cncn2)[C@@H](Cc2ccc(Cl)cc2)CC[C@@H]1C(F)(F)F (racemic) [Compound I-365, (1RS,2SR,5RS)-5-(4-chlorobenzyl)-2-trifluoromethyl-1-(1H-1,2,4-triazol-1-ylmethyl)cyclopentanol] | – | 60 to 80% | 60 to 80% | – | ≥ 90% | – | 60 to 80% | 60 to 80% | 60 to 80% | 60 to 80% | 60 to 80% | – | 60 to 80% | –
C[C@]1(CCl)CC[C@@H](Cc2ccc(Cl)cc2)[C@]1(O)Cn1ccnc1 (racemic) [Compound I-244, (1RS,2SR,5SR)-5-(4-chlorobenzyl)-2-chloromethyl-2-methyl-1-imidazol-1-ylmethylcyclopentanol] | – | 60 to 80% | 60 to 80% | – | ≥ 90% | ≥ 90% | 60 to 80% | 60 to 80% | 60 to 80% | 60 to 80% | 60 to 80% | ≤ 0.2 µg/mL | 60 to 80% | –
C[C@]1(CCl)CC[C@@H](Cc2ccc(OC(F)(F)F)cc2)[C@]1(O)Cn1cncn1 (relative stereo) [Compound I-79] | higher efficacy than that of compound (1) | – | – | – | – | – | – | – | – | – | – | – | – | –
Cc1ccc(C[C@@H]2CC[C@](C)(CCl)[C@@]2(O)Cn2cncn2)cc1 (relative stereo) [Compound I-80] | higher efficacy than that of compound (1) | – | – | – | – | – | – | – | – | – | – | – | – | –
C[C@@]1(CCl)CC[C@H](Cc2ccc(Cl)cc2)[C@]1(O)Cn1cncn1 (racemic) [Compound I-401, (1RS,2RS,5RS)-5-(4-chlorobenzyl)-2-chloromethyl-2-methyl-1-[1,2,4]triazol-1-ylmethylcyclopentanol] | – | 60 to 80% | 60 to 80% | – | ≥ 90% | – | 60 to 80% | 60 to 80% | 60 to 80% | 60 to 80% | 60 to 80% | – | 60 to 80% | –
CC[C@]1(CCl)CC[C@@H](Cc2ccccc2)[C@]1(O)Cn1cncn1 (relative stereo) [Compound I-97] | higher efficacy than that of compound (1) | – | – | – | – | – | – | – | – | – | – | – | – | –
